Results as given in patent US8530513B1, “Pharmaceutical uses of diterpene excavatolide B from a coral or an analogue thereof” (National Sun Yat-Sen University, priority 2012, dated 2013).

Tested on: Erk1/2
Test: TPA-induced Erk phosphorylation in mouse skin, western blot
Assay type: in vivo
Conditions: topical for 2 h after TPA
Method: Shaven abdominal skins of female C57BL/6JNarl mice were not treated or topically treated with vehicle (acetone, 200 μl/site) or TPA (10 nmol in 200 μl acetone/site) at indicated time points or treated first with TPA for 10 min, then with the indicated concentrations of BrD1 at the indicated time points. Abdominal skin samples were collected, homogenated and lysed to prepare total proteins. Protein samples were subsequently resolved by SDS-PAGE using a gradient gel. The resolved proteins were transferred to a PVDF Immobilon-P membrane (Millipore, Bedford, Calif.), and the membrane was blocked with 5% non-fat dry milk in PBST buffer (phosphate-buffered saline (PBS) containing 0.1% Tween 20) for 60 minutes at room temperature. The membranes were incubated overnight at 4° C. with commercially available antibodies (1:1000 dilutions). Loading of equal amounts of protein was assessed using mouse β-actin. The blots were rinsed three times with PBST buffer for 5 minutes. Washed blots were incubated with HRP-conjugated secondary antibody (1:100,000 dilution), then washed again three times with PBST buffer. […] Quantification of bands was performed using Image J software.
We therefore evaluated whether BrD1 could interfere with TPA-induced activation of Akt and Erk in inflamed skin. […] We thus determined the phosphorylation level of Akt, Erk, NF-κB and IκBα in skins subjected to different treatments. […]

CCCC(=O)O[C@H]1C/C(C)=C\[C@@H]2OC(=O)[C@]3(C)O[C@]23[C@@H](OC(C)=O)[C@H]2[C@@H](C)[C@@H](O)C[C@H](OC(C)=O)[C@]2(C)[C@H]1OC(C)=O [BrD1, excavatolide B]
TPA-induced Erk phosphorylation: inhibit TPA-induced Erk phosphorylation only slightly
